{
  "source": "paper PMC6148290",
  "about": "“Endogenous metabolites of vitamin E limit inflammation by targeting 5-lipoxygenase” (Nature Communications, 2018)",
  "key": {"[1]": {"system": "zymosan-induced murine peritonitis", "assay": "Zymosan-induced peritonitis in mice", "assay_type": "in vivo, mouse", "settings": "10 mg/kg i.p.", "experimental": "Mice were killed by inhalation of CO2 after another 30 min for determination of LTC4 levels and vascular permeability and after 4 h for the analysis of LTB4 levels, lipidomic profiles and immune cell infiltration. Cell infiltration and lipid mediator profiles during resolution were studied after 18 h. Peritoneal exudates were collected and cells counted after vital trypan blue staining. LTC4, LTB4, and PGE2 were analyzed in the exudate by enzyme immunoassays (Enzo Life Sciences, Lörrach, Germany) according to manufacturer's instructions. To assess vascular permeability, Evans blue dye (40 mg/kg in saline, 0.3 ml; Sigma-Aldrich) was injected into the tail vain immediately before the induction of peritonitis. Exudates were centrifuged (3000 × g, 5 min) and the absorbance of the supernatants was measured at 610 nm using a Beckman Coulter DU730 spectrophotometer. To investigate the effect of α-T (1a) on the accumulation of α-T-13'-COOH (4a) in infiltrated leukocytes after peritonitis has been established, vehicle or α-[…].) were given 1 h before and/or 4 h post zymosan injection, and mice were killed after another 1.5 h. Leukocytes were obtained from peritoneal exudates by centrifugation (1200 × g, 10 min, 4 °C)."}, "[2]": {"biological_target": "T1, human microsomal prostaglandin E2 synthase (mPGES)-1 (Homo sapiens, UniProt O14684)", "T1 sequence (O14684 1-152)": "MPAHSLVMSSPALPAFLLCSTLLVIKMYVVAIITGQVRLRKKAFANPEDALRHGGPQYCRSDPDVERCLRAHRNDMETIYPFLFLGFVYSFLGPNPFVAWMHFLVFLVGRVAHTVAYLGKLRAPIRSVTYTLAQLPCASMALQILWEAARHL", "assay": "mPGES-1 activity in microsomal preparations of IL-1β-treated A549 cells", "procedure": "Microsomal membranes of interleukin-1β-treated A549 cells were prepared as source of mPGES-1[67]. […] Ice-cold homogenization buffer (0.1 M potassium phosphate buffer pH 7.4, 1 mM phenylmethanesulphonyl fluoride, 60 µg/ml soybean trypsin inhibitor, 1 µg/ml leupeptin, 2.5 mM glutathione, and 250 mM sucrose) was added, and cells were incubated for 15 min on ice prior to sonication (3 × 20 s, 4 °C). […] Microsomes were suspended in homogenization buffer and diluted in potassium phosphate buffer (0.1 M, pH 7.4) containing 2.5 mM glutathione. Membranes (2.5–5 µg total protein) were pre-incubated with LCMs for 15 min at 4 °C, and PGE2 formation was initiated by addition of PGH2 (20 µM, final concentration). The reaction was terminated after 1 min by addition of one volume stop solution (40 mM FeCl2, 80 mM citric acid and 1 nmol of the internal standard 11β-PGE2, Cayman Chemicals)."}, "bovine COX-1": {"biological_target": "T2, bovine COX-1 (Bos taurus, UniProt O62664)", "T2 construct": "purchased Cayman Chemicals", "T2 sequence (O62664 25-600)": "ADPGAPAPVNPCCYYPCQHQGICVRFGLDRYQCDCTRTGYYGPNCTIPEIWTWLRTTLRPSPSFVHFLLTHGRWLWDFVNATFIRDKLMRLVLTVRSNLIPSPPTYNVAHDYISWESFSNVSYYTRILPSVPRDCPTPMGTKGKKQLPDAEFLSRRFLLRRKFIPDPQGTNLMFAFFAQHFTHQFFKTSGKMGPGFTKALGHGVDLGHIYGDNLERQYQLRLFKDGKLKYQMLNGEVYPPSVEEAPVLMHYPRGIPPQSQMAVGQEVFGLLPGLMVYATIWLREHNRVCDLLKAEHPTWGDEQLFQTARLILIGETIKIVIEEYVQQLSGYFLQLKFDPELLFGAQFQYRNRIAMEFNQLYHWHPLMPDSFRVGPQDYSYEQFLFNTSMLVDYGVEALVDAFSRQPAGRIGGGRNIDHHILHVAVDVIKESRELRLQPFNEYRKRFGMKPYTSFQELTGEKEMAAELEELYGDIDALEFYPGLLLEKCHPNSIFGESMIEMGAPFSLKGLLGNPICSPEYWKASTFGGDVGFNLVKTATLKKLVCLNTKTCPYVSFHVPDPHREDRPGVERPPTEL", "assay": "Activity of isolated COX-1", "assay_type": "biochemical", "experimental": "Purified bovine COX-1 (Cayman Chemicals; 50 units) or human recombinant COX-2 (Cayman Chemicals; 20 units) in 100 mM Tris buffer pH 8, 5 mM glutathione, 5 µM hemoglobin, and 100 µM EDTA were pre-incubated with LCMs for 5 min at 4 °C followed by 1 min at 37 °C. Formation of COX-derived 12(S)-hydroxy-5-cis-8,10-trans-heptadecatrienoic acid (12-HHT) was initiated by addition of AA (COX-1: 5 μM; COX-2: 2 μM)."}},
  "data": [
    {"smiles": "Cc1c(C)c2c(c(C)c1O)CC[C@@](C)(CCCC(C)CCCC(C)CCCC(C)C(=O)O)O2", "note": "(stereo partly drawn) [4a, 13-((2R)-6-hydroxy-2,5,7,8-tetramethylchroman-2-yl)-2,6,10-trimethyltridecanoic acid]", "values": [
      {"measurement": "vascular permeability", "setting": "[1]; 30 min post zymosan", "result": "reduced"},
      {"measurement": "LTC4 levels in the exudate", "setting": "[1]; 30 min post zymosan, ELISA", "result": "strongly decreased"},
      {"measurement": "immune cell infiltration into the peritoneal cavity", "setting": "[1]; 4 h post zymosan", "result": "impaired"},
      {"measurement": "LTB4 levels in the exudate", "setting": "[1]; 4 h post zymosan, ELISA", "result": "impaired"},
      {"measurement": "circulating resolvin E3 in plasma", "setting": "[1]; 18 h post zymosan", "result": "strongly increased"},
      {"measurement": "suppressive effect on cell infiltration at the resolution phase", "setting": "[1]; 18 h post zymosan", "result": "vanished"},
      {"measurement": "IC50", "setting": "[2]", "result": 8.8, "unit": "µM"},
      {"measurement": "IC50", "setting": "bovine COX-1", "result": "> 10", "unit": "µM"}
    ]}
  ]
}
